Data: patent US9315494B2, “Alkyl-amide-substituted pyridyl compounds useful as modulators of IL-12, IL-23 and/or IFNα responses” (Bristol-Myers Squibb Company, priority 2012, dated 2016)

Legend:
[1] = test system: IL-23-stimulated STAT-dependent luciferase reporter in Kit225 T cells; test: Kit225 T cell assay, IL-23 stimulated STAT-dependent luciferase reporter; format: cell-based, human; settings: Kit225 T cells, 20 ng/mL human recombinant IL-23, 5-6 hours, luciferase; read-out: IL23 (Kit225 T Cell Inhibition Data)
Procedure, shortened: (§1)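 Stimulus was either 200 U/mL human recombinant IFNα or 20 ng/mL IL-23, applied for 5-6 h to reporter-bearing Kit225 T cells grown in RPMI/10% FBS. Luciferase expression then quantified by luminescent assay.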

[2] = test system: IFNα-stimulated STAT-dependent luciferase reporter in Kit225 T cells; test: Kit225 T cell assay, IFNα stimulated STAT-dependent luciferase reporter; format: cell-based, human; settings: Kit225 T cells, 200 U/mL human recombinant IFNα, 5-6 hours, luciferase; read-out: IFNα (Kit225 T Cell Inhibition Data)
Procedure, shortened: as §1

Row | SMILES | IC50 [1] | IC50 [2]
1 | CNC(=O)c1cnc(Nc2cnccn2)cc1Nc1ccccc1C(N)=O [Example 178] | 1.63 µM | 1.88 µM
2 | CNC(=O)c1cnc(Nc2cnc(C#N)cn2)cc1Nc1ccccc1S(C)(=O)=O [Example 41] | 6.12 µM | 1.91 µM
3 | CNC(=O)c1cnc(Nc2cc(C)c(F)cn2)cc1Nc1cccc(C(=O)NCC(C)(C)O)c1OC [Example 347] | 0.19 µM | 0.07 µM
4 | CNC(=O)c1cnc(Nc2ccn(C(C)C)n2)cc1Nc1cc(F)cc(F)c1OC [Example 408] | 0.68 µM | 0.43 µM
5 | CNC(=O)c1cnc(Nc2cc(C#N)ccn2)cc1Nc1ccccc1S(C)(=O)=O [Example 5] | 0.0822 µM | 0.05 µM
6 | CNC(=O)c1cnc(Nc2cc3ccccc3cn2)cc1Nc1ccccc1S(C)(=O)=O [Example 25] | 0.0877 µM | 0.11 µM
7 | CNC(=O)c1cnc(Nc2cc(F)ccn2)cc1Nc1cccc(F)c1S(C)(=O)=O [Example 50] | 1.54 µM | 2 µM
8 | CNC(=O)c1cnc(Nc2cccc(-c3ccccc3)n2)cc1Nc1ccccc1C(N)=O [Example 77] | 0.538 µM | 0.35 µM
9 | [2H]C([2H])([2H])NC(=O)c1cnc(Nc2cc(CO)ccn2)cc1Nc1cccc(-c2csc(C)n2)c1OC [Example 405] | 0.02 µM | 0.01 µM
10 | CNC(=O)c1cnc(Nc2cc(C)c(F)cn2)cc1Nc1cccc(C(=O)NCc2c[nH]c3ccccc23)c1OC [Example 353] | 0.25 µM | 0.16 µM
11 | CNC(=O)c1ccnc(Nc2cc(Nc3cc(F)cc(F)c3OC)c(C(=O)NC)cn2)c1 [Example 273] | 0.223 µM | 0.16 µM
12 | CNC(=O)c1cnc(Nc2ccc3ccccc3n2)cc1NC1CCC(F)(F)CC1O (stereo not drawn) [Example 293] | 4.78 µM | 11.4 µM
13 | CNC(=O)c1cnc(Nc2ccc3ccccc3n2)cc1NC1CCC(F)(F)CC1 [Example 292] | 4.72 µM | 5.6 µM
14 | CNC(=O)c1cnc(Nc2ccn(C)n2)cc1Nc1cc(F)cc(F)c1OC [Example 407] | 0.09 µM | 0.09 µM
15 | CNC(=O)c1cnc(Nc2cc(C)c(F)cn2)cc1Nc1cccc(C(=O)NCC2(C#N)CC2)c1OC [Example 354] | 0.15 µM | 0.13 µM
16 | CNC(=O)c1cnc(Nc2cc(F)ccn2)cc1Nc1cc(F)ccc1S(C)(=O)=O [Example 57] | 0.16 µM | 0.19 µM
17 | CNC(=O)c1cnc(Nc2cc(C)ccn2)cc1Nc1ccc(Cl)cc1OC [Example 113] | 0.876 µM | 0.2 µM
18 | CNC(=O)c1cnc(Nc2ccc(C(F)(F)F)cn2)cc1Nc1cccc(-c2ncn(C)n2)c1OC [Example 375] | 0.02 µM | 0.00947 µM

Row | SMILES | IC50 [1] | IC50 [2]
19 | CNC(=O)c1cnc(Nc2cc(C)c(C#N)c(C)n2)cc1Nc1ccc(F)cc1OC [Example 163] | 0.306 µM | 0.23 µM
20 | CNC(=O)c1cnc(Nc2ccc3ccccc3n2)cc1Nc1ccccc1C(C)(C)O [Example 180] | 5.09 µM | 2.58 µM
21 | CNC(=O)c1cnc(Nc2cccc(-c3ccccc3)n2)cc1Nc1ccc(F)cc1OC [Example 150] | 2.7 µM | 1.52 µM
22 | CNC(=O)c1cnc(Nc2cc(-n3ccccc3=O)ccn2)cc1Nc1ccc(F)cc1OC [Example 168] | 1.42 µM | 1.22 µM
23 | CNC(=O)c1cnc(Nc2cc(C)n(C)n2)cc1Nc1ccccc1S(C)(=O)=O [Example 439] | 0.21 µM | 0.11 µM
24 | CNC(=O)c1cnc(Nc2cnc(C)cn2)cc1Nc1ccccc1S(C)(=O)=O [Example 40] | 0.13 µM | 0.13 µM
25 | CNC(=O)c1cnc(Nc2cc(C)c(F)cn2)cc1Nc1cccc(-c2ccnn2C)c1OC [Example 392] | 0.17 µM | 0.07 µM
26 | CNC(=O)c1cnc(Nc2ccc3[nH]ccc3n2)cc1Nc1ccc(Cl)cc1OC [Example 114] | 4.55 µM | 1.54 µM
27 | CNC(=O)c1cnc(Nc2cc(C)c(F)cn2)cc1Nc1cccc(C(=O)NCCCO)c1OC [Example 348] | 0.43 µM | 0.18 µM
28 | CNC(=O)c1cnc(Nc2ccccn2)cc1Nc1ccc(Cl)cc1OC [Example 110] | 0.998 µM | 0.42 µM
29 | CNC(=O)c1cnc(Nc2cccc(F)n2)cc1Nc1ccccc1S(C)(=O)=O [Example 20] | 0.0507 µM | 0.04 µM
30 | CNC(=O)c1cnc(Nc2ccc(F)cn2)cc1Nc1ccc(OC)cc1S(C)(=O)=O [Example 6] | 0.091 µM | 0.11 µM
31 | CNC(=O)c1cnc(Nc2cc(C#N)ccn2)cc1Nc1ccc(Cl)cc1OC [Example 121] | 0.244 µM | 0.15 µM
32 | CNC(=O)c1cnc(Nc2cccc(-n3ccccc3=O)n2)cc1Nc1cc(F)cc(F)c1OC [Example 164] | 4.41 µM | 2.99 µM
33 | CNC(=O)c1cnc(Nc2ccn(C(C)C)n2)cc1Nc1ccccc1S(C)(=O)=O [Example 442] | 0.45 µM | 0.13 µM
34 | CNC(=O)c1cnc(Nc2cc(C(C)(C)C)ccn2)cc1Nc1ccccc1S(C)(=O)=O [Example 18] | 1.12 µM | 0.4 µM
35 | CNC(=O)c1cnc(Nc2cc(C)c(F)cn2)cc1Nc1cccc(C(=O)NCC(C)C)c1OC [Example 350] | 0.08 µM | 0.08 µM

Now from value to molecule:

Row | IC50 [1] | IC50 [2] | SMILES
36 | 2.18 µM | 1.11 µM | CNC(=O)c1cnc(Nc2ccc(F)cn2)cc1Nc1ccc(C(=O)N2CCOCC2)cc1C [Example 236]
37 | 1.24 µM | 1.07 µM | CNC(=O)c1cnc(Nc2ccc3[nH]ccc3n2)cc1Nc1ccc(F)cc1OC [Example 160]
38 | 0.257 µM | 0.12 µM | CNC(=O)c1cnc(Nc2ccc(F)cn2)cc1Nc1ccc(F)cc1S(C)(=O)=O [Example 13]
39 | 0.568 µM | 0.7 µM | CNC(=O)c1cnc(Nc2cc(C(N)=O)ccn2)cc1Nc1ccc(F)c(F)c1OC [Example 256]
40 | 3.93 µM | 1.54 µM | CNC(=O)c1cnc(Nc2ccc(C#N)cn2)cc1Nc1ccccc1C(N)=O [Example 92]
41 | 0.578 µM | 0.38 µM | CNC(=O)c1cnc(Nc2ccc(C)cn2)cc1Nc1ccccc1C(N)=O [Example 72]
42 | 0.59 µM | 1.02 µM | CNC(=O)c1cnc(Nc2ccc(F)cn2)cc1Nc1ccc(-c2nnco2)cc1S(C)(=O)=O [Example 312]
43 | 0.16 µM | 0.14 µM | CNC(=O)c1cnc(Nc2cc(C)c(F)cn2)cc1Nc1cccc(C(=O)NCC2(C)COC2)c1OC [Example 343]
44 | 4.44 µM | 2.1 µM | CNC(=O)c1cnc(Nc2ccc(Cl)cn2)cc1Nc1ccc(F)cc1OC [Example 158]
45 | 0.82 µM | 0.73 µM | CNC(=O)c1cnc(Nc2ccc(OC)cn2)cc1Nc1ccccc1C(N)=O [Example 70]
46 | 0.21 µM | 0.11 µM | CNC(=O)c1cnc(Nc2ccc(F)cn2)cc1Nc1cccc(C(=O)NC2CC2)c1OC [Example 317]
47 | 0.802 µM | 0.26 µM | CNC(=O)c1cnc(Nc2ccc(N3CCOCC3)cn2)cc1Nc1ccc(F)cc1OC [Example 218]
48 | 1.3 µM | 0.99 µM | CNC(=O)c1cnc(Nc2ccc(C)cn2)cc1Nc1ccc(Cl)cc1OC [Example 111]
49 | 0.0978 µM | 0.04 µM | CNC(=O)c1cnc(Nc2ccc(N3CCOCC3)cn2)cc1Nc1ccccc1S(C)(=O)=O [Example 9]
50 | 4.38 µM | 6.97 µM | CNC(=O)c1cnc(Nc2ccc(F)cn2)cc1Nc1ccc(F)cc1 [Example 196]
51 | 2.16 µM | 1.45 µM | CNC(=O)c1cnc(Nc2cc3ccccc3cn2)cc1Nc1ccc(F)cc1OC [Example 146]

Row | IC50 [1] | IC50 [2] | SMILES
52 | 0.07 µM | 0.1 µM | CNC(=O)c1cnc(Nc2ccc(F)cn2)cc1Nc1cccc(C(=O)NC)c1OC [Example 316]
53 | 0.37 µM | 0.21 µM | CNC(=O)c1cnc(Nc2cc(C)c(F)cn2)cc1Nc1ccc(C(=O)N2CCCC2)cc1S(C)(=O)=O [Example 411]
54 | 1.19 µM | 0.82 µM | CNC(=O)c1cnc(Nc2cc(C(=O)NCCOC)ccn2)cc1Nc1ccc(F)cc1OC [Example 271]
55 | 0.24 µM | 0.12 µM | CNC(=O)c1cnc(Nc2ccc(N3CCC(C)(O)CC3)cn2)cc1Nc1ccccc1S(C)(=O)=O [Example 436]
56 | 0.409 µM | 0.26 µM | CNC(=O)c1cnc(Nc2ccc(F)cn2)cc1Nc1ccc(C(=O)N2CCC(F)(F)C2)cc1OC [Example 247]
57 | 0.367 µM | 0.51 µM | CNC(=O)c1cnc(Nc2ccc(F)cn2)cc1Nc1ccccc1OC [Example 190]
58 | 0.09 µM | 0.08 µM | CNC(=O)c1cnc(Nc2ccccn2)cc1Nc1cc(F)ccc1S(C)(=O)=O [Example 53]
59 | 0.09 µM | 0.01 µM | CNC(=O)c1cnc(Nc2cc(C)c(F)cn2)cc1Nc1cccc(C(N)=O)c1OC [Example 319]
60 | 3.74 µM | 1.54 µM | CNC(=O)c1cnc(Nc2ccc(F)cn2)cc1Nc1ccc(C(=O)NC2CC2F)cc1S(C)(=O)=O (stereo not drawn) [Example 307]
61 | 0.902 µM | 0.5 µM | CNC(=O)c1cnc(Nc2ccc(F)cn2)cc1Nc1ccc(C(=O)N2CCOCC2)cc1OC [Example 241]
62 | 3.26 µM | 3.66 µM | CNC(=O)c1cnc(Nc2ccc(F)cn2)cc1Nc1ccc(C(=O)N2CCOCC2)cc1 [Example 245]
63 | 2.38 µM | 1.65 µM | CCN(CC)C(=O)c1ccc(Nc2cc(Nc3ccc(F)cn3)ncc2C(=O)NC)cc1 [Example 246]
64 | 1.14 µM | 0.24 µM | CNC(=O)c1cnc(Nc2ccc(F)cn2)cc1Nc1ccc(F)cc1OCF [Example 151]
65 | 0.727 µM | 0.41 µM | CNC(=O)c1cnc(Nc2ccc(C(=O)N(C)C)cn2)cc1Nc1ccc(Cl)cc1OC [Example 262]
66 | 0.04 µM | 0.08 µM | CNC(=O)c1cnc(Nc2cc(C)c(F)cn2)cc1Nc1ccccc1S(N)(=O)=O [Example 431]
